Laboratory results as given in publication PMC10766610, “DCAF1-based PROTACs with activity against clinically validated targets overcoming intrinsic- and acquired-degrader resistance” (Nature Communications, 2024).

Columns and labels:
BRD9 = biological target: T1, BRD9 (Homo sapiens, UniProt Q9H8M2); test: Rescue of DBr-1 mediated BRD9 degradation by co-treatment, BRD9-HiBiT HEK293 cells; assay type: cell-based; parameters: host or cells: HEK293/BRD9-HiBiT knock-in; clone and BRD9-HiBiT/CAS9/FF clone; settings: (13) 1 µM, OICR8268 10 µM, BI-9564 10 µM
T1 sequence (Q9H8M2 1-597): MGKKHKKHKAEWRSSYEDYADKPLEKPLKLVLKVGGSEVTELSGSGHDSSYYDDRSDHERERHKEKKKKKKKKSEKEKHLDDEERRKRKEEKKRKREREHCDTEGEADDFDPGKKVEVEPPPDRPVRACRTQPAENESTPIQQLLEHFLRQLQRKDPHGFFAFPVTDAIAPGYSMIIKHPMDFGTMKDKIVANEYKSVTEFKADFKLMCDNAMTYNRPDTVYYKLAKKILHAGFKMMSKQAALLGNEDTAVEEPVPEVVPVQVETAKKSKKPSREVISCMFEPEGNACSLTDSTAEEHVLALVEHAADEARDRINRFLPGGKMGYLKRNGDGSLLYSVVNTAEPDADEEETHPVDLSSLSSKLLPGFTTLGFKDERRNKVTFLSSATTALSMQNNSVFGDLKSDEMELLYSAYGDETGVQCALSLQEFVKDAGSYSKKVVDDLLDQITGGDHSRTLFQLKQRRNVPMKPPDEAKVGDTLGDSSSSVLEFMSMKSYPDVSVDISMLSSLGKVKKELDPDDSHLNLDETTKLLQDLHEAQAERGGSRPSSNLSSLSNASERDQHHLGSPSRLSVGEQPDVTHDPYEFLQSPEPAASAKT
Description: Supplementary figure 4. Competition experiments with DBr-1 and DBr-1-N […]
a) BRD9-HiBiT signal detection of samples pretreated with either DMSO, 10µM OICR-8268, 1µM […]
Data represents average ± standard deviation from n=3 replicates. DC50 values and […]
maximal observed degradation are shown below. […]
b) Cell titer Glow assay of BRD9 HiBiT cells. Cells pretreated with either DMSO, 10µM OICR-8268, […]
Data represents average ± standard deviation from n=3 replicates.
Source data are provided as a Source Data file

BTK = BTK (Homo sapiens, UniProt Q06187); test: Immunoblot of BTK in TMD8 WT and CRBN (CBt) resistant cells; assay type: cell-based; parameters: performed with full-length BTK and endogenous DCAF1; expressed in transfected cells; host or cells: TMD8 cells, lentiviral, blasticidin-selected (TMD8 BTK-GFP/mCh); settings: 24 h; 0.1 µM CBt, 1 µM DBt-10
Description: Whole cell lysates for immunoblotting were prepared by pelleting cells at 4 °C (300 g) for 3 min. Cell pellets were then washed 1x with PBS and resuspended in RIPA lysis buffer (VWR, cat # 97063-270) supplemented with protease (Thermo Scientific, cat # A32955) and phosphatase (Thermo Scientific, cat # A32957) inhibitor tablets. Lysates were clarified at 16,000 × g for 15 min at 4 °C prior to quantification by Lowry assay (Bio-Rad cat # 5000113 and cat # 5000114). Whole-cell lysates were loaded into 4–20% Criterion TGX Precast 18 well gels (Bio-Rad, cat # 5671094) and separated by electrophoreses at 120 V for 1 h. The gels were transferred to a nitrocellulose membrane using the Trans-Blot Turbo (Bio-Rad) for 7 min and then blocked for 1 h at room temperature in Odyssey blocking buffer (LICOR Biosciences, cat # 927-50000). Membranes were probed with the appropriate primary antibodies (diluted 1:1000) overnight at 4 °C in 20% Odyssey blocking buffer in 1x TBST. Membranes were washed three times with 1x TBST (5 min per wash), and then incubated with IRDye goat anti-mouse (LICOR, cat # 926-32210) or goat anti-rabbit (LICOR, cat # 926-32211) secondary antibody diluted 1:10,000 in 20% Odyssey blocking buffer for 1 h at room temperature. After three 5-min washes with 1x TBST, the immunoblots were visualized using the ODYSSEY Infrared Imaging System (LICOR). […]

[1] = biological target: T2, DCAF1(WDR) with additional 10 µM BRD9-BD(130-250) (Homo sapiens, UniProt Q9H8M2+Q9Y4B6, E1398S); test: DCAF1 TR-FRET, cooperative format with 10 µM BRD9-BD(130-250); assay type: binding; settings: read-out: TR-FRET Q. IC50 [μM], + BRD9
T2 construct: 2 nM human DCAF1(1073-1399)_E1398S-Avi-His; human BRD9-BD(130-250) in the cooperative assay; His6 (C); GST (PreScission site) (N, cleaved yes); made in house; host or cells: DCAF1: Sf9 with BirA; BRD9: E. coli Rosetta (pGEX6P1)
Description: Competition assay conditions consist of 20 µL total volume in white 384-well plates (Greiner), in 30 mM phosphate buffer pH 7.4 containing 140 mM NaCl, 0.01% Tween20, 1 mM TCEP and 1% final DMSO. Tested compounds at 14 different concentrations were pre-incubated at 22 °C for 30 min with a large excess of 10 µM human BTK (G389-S659) or 10 µM human BRD9-BD(130-250) in the cooperative assay or with buffer in standard binary assay. […] Samples were then incubated at 22 °C for 30 min before reading using a Tecan infinite M-1000 or PheraStar FSX (excitation 340 nm, emission 490 and 520 nm). DCAF1 protein was omitted in the negative control. IC50 fitting was carried out using an in-house developed software (Novartis Helios software application, unpublished, a publicly available alternative would be e.g., Graphpad Prism) using the methods described by Fomenko et al.[93] (regression algorithms for nonlinear dose-response curve fitting). Following normalization of activity values for the wells to % inhibition (% inhibition = [(high control-sample)/(high control-low control)] × 100). Data analysis could also be carried out using GraphPad Prism without prior normalization. The reported IC50 values are the average of at least two independent experiments.

BTK, sequence (Q06187 2-659 limits assumed): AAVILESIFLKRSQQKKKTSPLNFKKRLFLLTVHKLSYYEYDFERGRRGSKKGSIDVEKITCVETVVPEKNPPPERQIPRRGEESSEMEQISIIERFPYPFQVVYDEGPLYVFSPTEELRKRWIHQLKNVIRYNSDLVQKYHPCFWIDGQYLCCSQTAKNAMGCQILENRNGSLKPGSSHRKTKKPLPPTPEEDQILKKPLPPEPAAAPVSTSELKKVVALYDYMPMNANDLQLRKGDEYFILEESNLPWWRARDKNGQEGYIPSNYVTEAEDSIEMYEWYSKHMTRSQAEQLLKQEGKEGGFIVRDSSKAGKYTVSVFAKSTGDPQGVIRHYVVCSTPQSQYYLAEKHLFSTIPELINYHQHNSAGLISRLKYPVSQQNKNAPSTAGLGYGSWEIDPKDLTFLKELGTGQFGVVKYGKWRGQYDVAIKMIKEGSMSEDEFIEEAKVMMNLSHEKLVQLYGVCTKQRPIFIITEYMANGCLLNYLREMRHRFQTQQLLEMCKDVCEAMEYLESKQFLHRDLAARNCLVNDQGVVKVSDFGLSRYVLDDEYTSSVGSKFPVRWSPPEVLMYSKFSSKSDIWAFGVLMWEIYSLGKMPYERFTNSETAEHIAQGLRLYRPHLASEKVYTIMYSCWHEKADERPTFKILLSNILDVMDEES
T2 sequence (Q9Y4B6 1073-1399 E1398S, one chain of several): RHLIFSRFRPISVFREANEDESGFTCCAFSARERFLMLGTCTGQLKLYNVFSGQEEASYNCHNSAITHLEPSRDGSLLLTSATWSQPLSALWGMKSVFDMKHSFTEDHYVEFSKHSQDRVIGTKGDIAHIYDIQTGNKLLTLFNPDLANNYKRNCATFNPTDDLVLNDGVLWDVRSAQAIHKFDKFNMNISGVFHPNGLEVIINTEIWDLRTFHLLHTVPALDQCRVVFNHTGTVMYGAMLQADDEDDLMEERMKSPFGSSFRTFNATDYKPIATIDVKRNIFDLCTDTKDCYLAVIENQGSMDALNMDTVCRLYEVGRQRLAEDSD

Q: Which “effect of co-treatment on DBr-1 mediated BRD9 degradation” value (BRD9) does the source give for `CC(=O)N1CCN(c2ccc3c(NCCN)nc(C4(c5ccc(Cl)cc5)CCCCC4)nc3c2)CC1` [compound 13] here?
A: Its value is “did not affect the degradation efficacy of DBr-1”.

Q: For `Cc1c(NC(=O)N2CC(O)(CC(C)(C)C)C2)cc(F)cc1-c1ncnc2[nH]c(-c3cnn(CC(=O)N4CCC5(CC4)CN(CCNC(=O)CCCC(=O)N4CCN(c6ccc7c(NCCN)nc(C8(c9ccc(Cl)cc9)CCCCC8)nc7c6)CC4)CCO5)c3)cc12` [DBt-10], which “BTK degradation in TMD8 CBt sensitive (WT) vs resistant cells” value (BTK) is on record?
A: The value was “equipotent degradation of BTK”.

Q: For `COc1cc(-c2cn(C)c(=O)c3cnccc23)c(OC)cc1CN1CCC(OCCCCCC(=O)N2CCN(c3ccc4c(NCCN)nc(C5(c6ccc(Cl)cc6)CCCCC5)nc4c3)CC2)CC1` [DBr-1], which IC50 [1] is on record?
A: The IC50 was 0.002 µM.
